Assay results from article PMC4431178, “Molecular basis of sugar recognition by collectin-K1 and the effects of mutations associated with 3MC syndrome” (BMC Biology, 2015).

Tests used:
CL-K1 [1] = target: T1, CL-K1 (Homo sapiens, UniProt Q9BWP8); assay: Glycan-array screen with fluorophore-labelled CL-K1; format: binding; parameters: For full-length protein, the cDNA was cloned into the polylinker region of expression vector pED; made in house; host or cells: Chinese hamster ovary cells; details: for relative fluorescence, With Ca^2+ / relative fluorescence, Without Ca^2+: glycan array, ± SE from six replicates; for relative fluorescence, With Ca^2+: CL-K1 200 μg/ml; for relative fluorescence, With Ca^2+ / glycan-array binding by CL-K1: with Ca2+; for relative fluorescence, Without Ca^2+: without Ca2+
Source text: To examine binding to individual glycans, fluorophore-labelled CL-K1 was used to probe a broad screen of mammalian carbohydrates using the Core H Glycan array technology facility at The Consortium for Functional Glycomics. […] The relative fluorescence signal provides an accurate indication of the order of affinities. Consistent with the glycoprotein data, the best ligands were all high-mannose oligosaccharides (Figure 2A and Additional file 1), but not all of these were recognised. Mammalian high-mannose structures comprise a Man5 core attached to the protein via two GlcNAc residues, with α1-2 linked sugars at the non-reducing termini (Figure 2C). CL-K1 only recognised those structures containing at least one terminal Man(α1-2)Man epitope. For example, it bound tightly to Man6, Man7, Man8 and Man9 but not to the Man5 core (ligand 310) that comprises only α1-3 and α1-6 linkages. […] This pattern of recognition is different from other collectins, such as MBL and pulmonary-surfactant protein D that typically recognise the terminal sugar alone (mannose, fucose or N-acetyglucosamine). It is also different from other C-type lectins, such as DC-SIGN or DC-SIGNR that target larger high-mannose oligosaccharides preferentially (Man5 to Man9). To quantify the differences in affinities, we compared binding to three different epitopes that all form part of a high-mannose oligosaccharide. […] Thus, CL-K1 primarily recognises the terminal disaccharide of the glycan, rather than the terminal sugar alone, explaining its unusual binding properties.
Labelled protein (70 μL) was applied to the printed surface of the microarray chip coated with natural and synthetic glycans via amino linkers. The chip was covered and incubated at room temperature in a humidified chamber for one hour. Binding was detected by measuring the fluorescence associated with each glycan. Data are the average of six replicates.
Target sequence in this assay (Q9BWP8 26-271): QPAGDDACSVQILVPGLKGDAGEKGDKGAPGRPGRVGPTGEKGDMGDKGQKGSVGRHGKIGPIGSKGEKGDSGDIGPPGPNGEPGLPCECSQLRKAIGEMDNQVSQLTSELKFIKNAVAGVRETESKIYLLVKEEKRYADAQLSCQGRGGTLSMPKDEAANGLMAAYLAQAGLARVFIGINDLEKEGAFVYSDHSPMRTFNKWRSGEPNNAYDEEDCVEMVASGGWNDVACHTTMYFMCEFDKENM

CL-K1 [2] = target: T1, CL-K1; assay: Surface plasmon resonance of CL-K1 binding to glycoproteins; parameters: For full-length protein, the cDNA was cloned into the polylinker region of expression vector pED; made in house; host or cells: Chinese hamster ovary cells; details: glycoprotein starting concentration 200 nM
Experimental: (§1) Figure 1 Glycoprotein binding and complement activation by CL-K1. A) Immunoblot of CL-K1 binding to immobilised mammalian and yeast glycoproteins. B) Surface plasmon resonance of CL-K1 binding to glycoproteins. […] C3b and its breakdown products were detected by absorbance using an anti-human C3c antibody with alkaline phosphatase-conjugated goat anti-rabbit secondary antibody and p-nitrophenyl phosphate as the substrate. Protein concentrations were calculated based on the molecular masses of CL-K1 and MBL trimers (78 kDa in each case). CL-K1, collectin-K1; MBL, mannan-binding lectin.
CL-K1 was immobilised on the surface of a GLM sensor chip (Bio-Rad Laboratories Ltd (Hemel Hempstead, UK)) by amine coupling. Binding was measured in 10 mM Tris–HCl, pH 7.4 containing 140 mM NaCl, 2 mM CaCl2 and 0.005% Tween 20 at a flow rate of 25 μl/minute and at 25°C. The protein surface was regenerated in buffer containing 1 M NaCl and 5 mM EDTA.
Target sequence in this assay (Q9BWP8 26-271): as above

CL-K1 [3] = target: T1, CL-K1; assay: Immunoblot of CL-K1 binding to immobilised glycoproteins; parameters: For full-length protein, the cDNA was cloned into the polylinker region of expression vector pED; made in house; host or cells: Chinese hamster ovary cells; details: biotinylated CL-K1 0.06 mg/ml, glycoproteins spotted on nitrocellulose
Experimental: as §1
Target sequence in this assay (Q9BWP8 26-271): as above
Two-fold serial dilutions of glycoprotein (0.5 μl at a starting concentration of 2 mg/ml) were spotted on to a nitrocellulose membrane and allowed to dry for 30 minutes at room temperature. […] After washing, the membrane was incubated with Streptavidin-ALP conjugate (2ug/ml; Life Technologies Ltd (Paisley, UK)) and developed with BCIP-NBT substrate (Sigma).

CL-K1 [4] = target: T1, CL-K1; assay: Inhibition of CL-K1 binding to immobilized yeast invertase by high-mannose epitopes; parameters: For full-length protein, the cDNA was cloned into the polylinker region of expression vector pED; made in house; host or cells: Chinese hamster ovary cells; details: relative to Man(α1-2)Man IC50 of 0.02 mM
Target sequence in this assay (Q9BWP8 26-271): as above

complement component C3b = assay: Complement activation: C3b deposition on mannan in lectin-depleted human serum; format: biochemical; details: 1/100 human serum depleted of endogenous lectins
Experimental: as §1
After incubation at 37°C for one hour and washes with buffer containing 0.5% Tween-20, C3b was detected using rabbit anti-human C3c antibody (Dako UK Ltd (Ely, UK)) with alkaline phosphatase-conjugated goat anti-rabbit secondary antibody (Sigma) and p-nitrophenyl phosphate as the substrate.

[5] = test system: Chinese hamster ovary cells; assay: Secretion of wild type and variant CL-K1s from mammalian cells (immunoblot of medium); format: cell-based; details: transfected CHO cells, serum-free medium, anti-CL-K1 immunoblot
Source text: Figure 5 No secretion of variant CL-K1s containing mutations associated with 3MC syndrome. A) Structure of the CRD of CL-K1 showing the position of mutations associated with 3MC syndrome. Secondary structure features are labelled based on the structure of MBL [38]. Polar interactions are indicated by dotted lines. B) Secretion of wild type and variant CL-K1s from mammalian cells. […] Secreted CL-K1 was detected using rabbit polyclonal anti-CL-K1 antibodies. Purified wild-type CL-K1 (approximately 20 ng) was used as a positive control. CL-K1, collectin-K1; CRD, carbohydrate-recognition domain; MBL, mannan-bindng lectin; 3MC, Carnevale, Mingarelli, Malpuech and Michels.
For full-length protein, the cDNA was cloned into the polylinker region of expression vector pED [29] and protein was produced in Chinese hamster ovary cells and purified by affinity chromatography on mannose-Sepharose columns as described previously for MBL [28, 30]. […] Cells were grown in Power Prime broth (Molecular Dimensions Limited (Newmarket, UK)), induced during mid-log phase with IPTG (1 mM), and harvested after growth at 37°C for an additional 16 hours.

yeast invertase = assay: Binding of biotinylated invertase to full length CL-K1 and trimeric fragments; details: plates coated with CL-K1 protein
Source text: Figure 6 Characterisation of CL-K1 fragments containing disease-associated mutations. […] The elution positions of conalbumin (75 kDa), ovalbumin (44 kDa) and ribonuclease A (13.7 kDa) are indicated. […] Bottom, None of the three CL-K1 variants interacts with the column, even in the presence of Ca^2+. B) CD spectra of the wild-type CL-K1 fragment and the disease-associated CL-K1 variants. […] Values are the mean ± error from duplicate measurements. Tighter binding of the full-length protein is due to its increased avidity. CL-K1, collectin-K1; EDTA, ethylenediaminetetraacetic acid.
After washing, wells were incubated with 1:2000 dilution of goat peroxidase conjugated anti-biotin antibody (Sigma) and developed with tetramethylbenzidine (Sigma). Absorbance was measured at 450 nm.

CL-K1 fragment = target: T2, CL-K1 fragment (Homo sapiens, UniProt Q9BWP8); assay: Ca2+ binding to the CL-K1 fragment measured by intrinsic fluorescence
T2 construct: made in house
T2 sequence (Q9BWP8 116-271): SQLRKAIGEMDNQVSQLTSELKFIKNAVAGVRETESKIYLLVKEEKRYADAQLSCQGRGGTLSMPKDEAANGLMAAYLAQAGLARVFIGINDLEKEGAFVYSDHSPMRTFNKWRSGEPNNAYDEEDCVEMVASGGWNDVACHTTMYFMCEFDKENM
Experimental: (§2) Figure 4 Ca^2+ stabilises the CRDs of CL-K1. A) Fluorescence spectra of the CL-K1 fragment in different buffers. The λex was 280 nm. B) Ca^2+ binding to the CL-K1 fragment measured by fluorescence. […] C) Urea denaturation in the presence and absence of Ca^2+ (2 mM). […] Samples were separated by SDS-PAGE and gels were scanned to determine the amount of CL-K1 remaining. The amount of trypsin was 0.5% (w/w). The intensities of bands corresponding to the neck and CRD and the CRD alone were combined. A sample gel is shown in F). E) Proteolysis of CL-K1 in the presence and absence of Ca^2+. Two fold serial dilutions of trypsin were used at a starting concentration of 2% (w/w). In all experiments data are mean ± error from two separate experiments. CL-K1, collectin-K1; CRD, carbohydrate-recognition domain.
All experiments were carried out using a Fluoromax-4 (Horiba Jobin Yvon, Horiba UK Ltd (Middlesex, UK)) instrument with excitation wavelength at 280 nm, slit widths of 2 nm and emission wavelength range of 300 to 400 nm. The λex was 280 nm. Protein samples (0.5 μM) in 10 mM Tris–HCl, pH 7.4 containing 140 mM NaCl were measured in the presence of 2 mM CaCl2, 1 mM EDTA and 6 M urea.

CL-K1 [6] = target: T1, CL-K1; assay: Proteolysis of CL-K1 by trypsin at increasing Ca2+ concentrations; format: binding; parameters: made in house; details: trypsin 0.5% (w/w), read-out: apparent KD for calcium
Experimental: as §2
Target sequence in this assay (Q9BWP8 116-271): as above

| Compound | relative fluorescence, With Ca^2+ (CL-K1 [1]) | relative fluorescence, Without Ca^2+ (CL-K1 [1]) | also measured |
| --- | --- | --- | --- |
| OC[C@H]1O[C@H](O)[C@H](O)[C@@H](O)[C@@H]1O [compound 7] | 250 ± 80 | 952 ± 297 | – |
| OC[C@H]1O[C@H](O)[C@@H](O)[C@@H](O)[C@@H]1O [compound 8] | 566 ± 230 | 1156 ± 233 | – |
| Mannan | – | – | binding to CL-K1 by surface plasmon resonance (CL-K1 [2]): bound tightly; binding of CL-K1 on blot (CL-K1 [3]): binding |
| CC1OC(O)C(O)C(O)C1O (stereo not shown) [compound 10] | 431 ± 27 | 1097 ± 138 | – |
| OC[C@H]1OC(O)[C@@H](O)[C@@H](O)[C@@H]1O (stereo partly shown) [mannose] | – | – | fold by which inhibition by Man(α1-2)Man is greater than for this ligand (CL-K1 [4]): > 300 fold |
| thyroglobulin: Bovine thyroglobulin from GE Healthcare | – | – | binding of CL-K1 on blot (CL-K1 [3]): binding |
| fetuin: Bovine fetuin from Sigma-Aldrich | – | – | binding of CL-K1 on blot (CL-K1 [3]): not |
| OC[C@H]1O[C@@H](O)[C@H](O)[C@@H](O)[C@@H]1O [compound 17] | 831 ± 505 | 4473 ± 1785 | – |
| CC1OC(O)C(O)C(O)C1O (stereo not shown) [compound 11] | 546 ± 98 | 1922 ± 358 | – |
| Invertase: yeast invertase glycoprotein from Sigma-Aldrich | – | – | binding to CL-K1 by surface plasmon resonance (CL-K1 [2]): bound tightly; binding of CL-K1 on blot (CL-K1 [3]): binding |
| CL-K1: full-length recombinant human collectin-K1 produced in Chinese hamster ovary cells | – | – | complement activation, fold lower activity than human MBL (complement component C3b): 2.5 fold; secretion into medium [5]: secreted; binding to yeast invertase (yeast invertase): bound |
| [Ca+2] [Ca^2+] | – | – | Kd (CL-K1 fragment; read-out: KD for Ca2+ by titration): 430 µM; Hill coefficient of Ca2+ binding (CL-K1 fragment; trimeric neck+CRD fragment, intrinsic fluorescence): 2.4; Kd (CL-K1 [6]): ~1000 µM |
| OC[C@H]1O[C@@H](O)[C@H](O)[C@@H](O)[C@H]1O [compound 16] | 941 ± 308 | 4062 ± 774 | – |
| NCCCCCO[C@H]1O[C@H](CO[C@H]2O[C@H](CO[C@H]3O[C@H](CO)[C@@H](O)[C@H](O)[C@@H]3O[C@H]3O[C@H](CO)[C@@H](O)[C@H](O)[C@@H]3O)[C@@H](O)[C@H](O[C@H]3O[C@H](CO)[C@@H](O)[C@H](O)[C@@H]3O[C@H]3O[C@H](CO)[C@@H](O)[C@H](O)[C@@H]3O)[C@@H]2O)[C@@H](O)[C@H](O[C@H]2O[C@H](CO)[C@@H](O)[C@H](O)[C@@H]2O[C@H]2O[C@H](CO)[C@@H](O)[C@H](O)[C@@H]2O[C@H]2O[C@H](CO)[C@@H](O)[C@H](O)[C@@H]2O)[C@@H]1O [ligand 312, Manα1-2Manα1-2Manα1-3(Manα1-2Manα1-6(Manα1-2Manα1-3)Manα1-6)Manα-Sp9] | – | – | glycan-array binding by CL-K1 (CL-K1 [1]): bound tightly |
| OC[C@H]1O[C@H](O)[C@H](O)[C@@H](O)[C@H]1O [compound 6] | 294 ± 167 | 870 ± 157 | – |

Continued, in another order:

| relative fluorescence, With Ca^2+ (CL-K1 [1]) | relative fluorescence, Without Ca^2+ (CL-K1 [1]) | Compound | also measured |
| --- | --- | --- | --- |
| 499 ± 293 | 1798 ± 141 | CC(=O)N[C@@H]1[C@@H](O)[C@H](O)[C@@H](CO)O[C@H]1O [compound 21] | – |
| 170 ± 91 | 535 ± 116 | CC(=O)N[C@@H]1[C@@H](O)[C@H](O)[C@@H](CO)O[C@H]1O [compound 20] | – |
| 99 ± 9 | 570 ± 170 | OC[C@H]1O[C@@H](O)[C@@H](O)[C@@H](O)[C@@H]1O [compound 18] | – |
| 1000 ± 468 | 768 ± 303 | OCC1OC(OCC2OC(OCC3OC(O)C(O)C(OC4OC(CO)C(O)C(O)C4O)C3O)C(O)C(OC3OC(CO)C(O)C(O)C3O)C2O)C(O)C(O)C1O (stereo not shown) [compound 310] | glycan-array binding by CL-K1 (CL-K1 [1]): not |
